Test results: patent publication US20260028341A1, “IMIDAZOTRIAZINE DERIVATIVES AS IL-17 MODULATORS” (UCB BIOPHARMA SRL, priority 2022, published 2026)

Target: T1, IL-17A (Homo sapiens, UniProt Q16552)
T1 sequence (Q16552 24-155): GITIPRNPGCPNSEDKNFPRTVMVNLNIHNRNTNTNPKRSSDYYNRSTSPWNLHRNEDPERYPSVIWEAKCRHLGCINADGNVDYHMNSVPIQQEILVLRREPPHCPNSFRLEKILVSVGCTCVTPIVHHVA
Test: Inhibition of IL-17A induced IL-6 release from dermal fibroblast cell line (HDF cell line assay)
Type: cell-based
Settings: HDF cells stimulated with IL-17A (50 pM) plus TNF-α (25 pM); IL-6 release measured by HTRF
Description: Inhibition of IL-17A Induced IL-6 Release from Dermal Fibroblast Cell Line
The purpose of this assay is to test the neutralising ability to IL-17 proteins, in a human primary cell system. Stimulation of normal human dermal fibroblasts (HDF) with IL-17 alone produces only a very weak signal but in combination with certain other cytokines, such as TNFα, a synergistic effect can be seen in the production of inflammatory cytokines, i.e. IL-6.
HDFs were stimulated with IL-17A (50 pM) in combination with TNF-α (25 pM). The resultant IL-6 response was then measured using a homogenous time-resolved FRET kit from Cisbio. The kit utilises two monoclonal antibodies, one labelled with Eu-Cryptate (Donor) and the second with d2 or XL665 (Acceptor). The intensity of the signal is proportional to the concentration of IL-6 present in the sample (Ratio is calculated by 665/620×104).
The ability of a compound to inhibit IL-17 induced IL-6 release from human dermal fibroblasts is measured in this assay.
HDF cells (Sigma #106-05n) were cultured in complete media (DMEM+10% FCS+2 mM L-glutamine) and maintained in a tissue culture flask using standard techniques. Cells were harvested from the tissue culture flask on the morning of the assay using TrypLE (Invitrogen #12605036). The TrypLE was neutralised using complete medium (45 mL) and the cells were centrifuged at 300×g for 3 minutes. The cells were re-suspended in complete media (5 mL) counted and adjusted to a concentration of 3.125×10^4 cells/mL before being added to the 384 well assay plate (Corning #3701) at 40 μL per well. The cells were left for a minimum of three hours, at 37° C./5% CO2, to adhere to the plate.
Compounds were serially diluted in DMSO before receiving an aqueous dilution into a 384 well dilution plate (Greiner #781281), where […] from the titration plate was transferred to 45 μL of complete media and mixed to give a solution containing 10% DMSO.
Mixtures of TNFα and IL-17 cytokine were prepared in complete media to final concentrations of TNFα 25 pM/IL-17A 50 pM, then 30 μL of the solution was added to a 384 well reagent plate (Greiner #781281).
10 μL from the aqueous dilution plate was transferred to the reagent plate containing 30 μL of the diluted cytokines, to give a 2.5% DMSO solution. The compounds were incubated with the cytokine mixtures for 5 h at 37° C. After the incubation, 10 μL was transferred to the assay plate, to give a 0.5% DMSO solution, then incubated for 18-20 h at 37° C./5% CO2.
From the Cisbio IL-6 FRET kit (Cisbio #62IL6PEB) europium cryptate and Alexa 665 were diluted in reconstitution buffer and mixed 1:1, as per kit insert. To a white low volume 384 well plate (Greiner #784075) were added FRET reagents (10 μL), then supernatant (10 μL) was transferred from the assay plate to Greiner reagent plate. The mixture was incubated at room temperature for 3 h with gentle shaking (<400 rpm) before being read on a Synergy Neo 2 plate reader (Excitation: 330 nm; Emission: […]).

IC50 [nM]	Molecule	pIC50
6.31	Cc1nonc1C(=O)N[C@H](c1cn2ncc(C3(N4CC(C(F)(F)F)NC4=O)CC(F)(F)C3)nc2n1)C1CCC(F)(F)CC1 (single isomer, unassigned) [Example 1]	–
1000	Cc1nonc1C(=O)N[C@H](c1cn2ncc(C3(N4C[C@H](C(F)(F)F)NC4=O)CC(F)(F)C3)nc2n1)C1CCC(F)(F)CC1 (single isomer, unassigned) [Example 2]	–
631	Cc1nonc1C(=O)N[C@H](c1cn2ncc(C3(N4C[C@@H](C(F)(F)F)NC4=O)CC3)nc2n1)C1CCC(F)(F)CC1 (single isomer, unassigned) [Example 3]	–
3.98	Cc1nonc1C(=O)N[C@H](c1cn2ncc(C3(N4C[C@@H](C(F)(F)F)NC4=O)CCOCC3)nc2n1)C1CCC(F)(F)CC1 (single isomer, unassigned) [Example 4]	–
2000	Cc1nonc1C(=O)N[C@H](c1cn2ncc(C3(N4C[C@H](C(F)(F)F)NC4=O)CCOCC3)nc2n1)C1CCC(F)(F)CC1 (single isomer, unassigned) [Example 5]	–
7940	Cc1nonc1C(=O)N[C@H](c1cn2ncc([C@@]3(N4C[C@H](C(F)(F)F)NC4=O)CCOC3)nc2n1)C1CCC(F)(F)CC1 (single isomer, unassigned) [Example 13]	–
3.98	Cc1nonc1C(=O)N[C@H](c1cn2ncc(C3(N4C[C@@H](C(F)(F)F)NC4=O)CCN(CC(C)(F)F)CC3)nc2n1)C1CCC(F)(F)CC1 (single isomer, unassigned) [Example 14]	–
316	Cc1nonc1C(=O)N[C@H](c1cn2ncc(C3(N4C[C@H](C(F)(F)F)NC4=O)CCN(CC(C)(F)F)CC3)nc2n1)C1CCC(F)(F)CC1 (single isomer, unassigned) [Example 15]	–
3.98	Cc1nonc1C(=O)N[C@H](c1cn2ncc(C3(N4C[C@@H](C(F)(F)F)NC4=O)CCN(CC(C)(C)F)CC3)nc2n1)C1CCC(F)(F)CC1 (single isomer, unassigned) [Example 16]	–
251	Cc1nonc1C(=O)N[C@H](c1cn2ncc(C3(N4C[C@H](C(F)(F)F)NC4=O)CCN(CC(C)(C)F)CC3)nc2n1)C1CCC(F)(F)CC1 (single isomer, unassigned) [Example 17]	–
10	Cc1nonc1C(=O)N[C@H](c1cn2ncc(C3(N4C[C@@H](C(F)(F)F)NC4=O)CCN(C)CC3)nc2n1)C1CCC(F)(F)CC1 (single isomer, unassigned) [Example 18]	–
200	Cc1nonc1C(=O)N[C@H](c1cn2ncc(C3(N4C[C@H](C(F)(F)F)NC4=O)CCN(C)CC3)nc2n1)C1CCC(F)(F)CC1 (single isomer, unassigned) [Example 19]	–
7.94	Cc1nonc1C(=O)N[C@H](c1cn2ncc(C3(N4CC(C(F)(F)F)NC4=O)CCN(C(=O)OC(C)(C)C)CC3)nc2n1)C1CCC(F)(F)CC1 (stereo partly drawn) [Example 6, tert-Butyl 4-(6-{(S)-(4,4-difluorocyclohexyl)[(4-methyl-1,2,5-oxadiazole-3-carbonyl)-amino]methyl}imidazo[1,2-b][1,2,4]triazin-3-yl)-4-[2-oxo-4-(trifluoromethyl)-imidazolidin-1-yl]piperidine-1-carboxylate]	–
31.6	Cc1nonc1C(=O)N[C@H](c1cn2ncc(C3(N4CC(C(F)(F)F)NC4=O)CCNCC3)nc2n1)C1CCC(F)(F)CC1 (stereo partly drawn) [Example 7, N—[(S)-(4,4-Difluorocyclohexyl)(3-{4-[2-oxo-4-(trifluoromethyl)imidazolidin-1-yl]-piperidin-4-yl}imidazo[1,2-b][1,2,4]triazin-6-yl)methyl]-4-methyl-1,2,5-oxadiazole-3-carboxamide]	–
–	N—[(S)-(4,4-Difluorocyclohexyl)(3-{3-[(4R)-2-oxo-4-(trifluoromethyl)imidazolidin-1-yl]-oxetan-3-yl}imidazo[1,2-b][1,2,4]triazin-6-yl)methyl]-4-methyl-1,2,5-oxadiazole-3-carboxamide [Example 9]	5.0
–	N—[(S)-(4,4-Difluorocyclohexyl)(3-{3-[(4S)-2-oxo-4-(trifluoromethyl)imidazolidin-1-yl]-oxetan-3-yl}imidazo[1,2-b][1,2,4]triazin-6-yl)methyl]-4-methyl-1,2,5-oxadiazole-3-carboxamide [Example 8]	7.5
–	N—[(S)-(4,4-Difluorocyclohexyl)(3-{(3R)-3-[(4R)-2-oxo-4-(trifluoromethyl)imidazolidin-1-yl]tetrahydrofuran-3-yl}imidazo[1,2-b][1,2,4]triazin-6-yl)methyl]-4-methyl-1,2,5-oxadiazole-3-carboxamide [Example 12]	6.2
–	N—[(S)-(4,4-Difluorocyclohexyl)(3-{(3R)-3-[(4S)-2-oxo-4-(trifluoromethyl)imidazolidin-1-yl]tetrahydrofuran-3-yl}imidazo[1,2-b][1,2,4]triazin-6-yl)methyl]-4-methyl-1,2,5-oxadiazole-3-carboxamide [Example 10]	7.2
–	N—[(S)-(4,4-Difluorocyclohexyl)(3-{(3S)-3-f[(4S)-2-oxo-4-(trifluoromethyl)imidazolidin-1-yl]tetrahydrofuran-3-yl}imidazo[1,2-b][1,2,4]triazin-6-yl)methyl]-4-methyl-1,2,5-oxadiazole-3-carboxamide [Example 11]	8.0
